Experimental data published in patent publication US9266876B2 (Actelion Pharmaceuticals Ltd., priority 2012, dated 2016).

How the values were obtained:
human CXCR3A = human CXCR3A (Homo sapiens (Human), UniProt P49682); experiment: FLIPR assay; format: cell-based; conditions: CHO-K1 cells expressing the human CXCR3A coupled to Galpha(16); CXCL10 agonist 20 nM; Fluo-4-AM fluorescence; mean values if determined several times
How it was run: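 CHO-K1 cells expressing CXCR3A coupled to Gα16 were loaded with Fluo-4-AM for 1 h in Hepes-buffered HBSS, pH 7.4, with 5 mM probenecid. Compound dilutions were added on the FLIPR, followed by CXCL10 (added as a 20 nM solution). Baseline-subtracted peak fluorescence was fitted to a single-site curve for IC50.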

CXCR3 = CXCR3 (Homo sapiens (Human), UniProt P49682); experiment: Receptor internalization assay; format: cell-based; conditions: human whole blood; final CXCL10 concentration 9 nM; 30 min 37° C.; CXCR3 cell surface expression on CD3 positive cells, flow cytometer; read-out: Internalization IC50
Protocol: B): Receptor Internalization Assay:
Stock solutions of test compounds are made up at a concentration of 10 mM in DMSO, and serially diluted in PBS containing 0.5% BSA to concentrations required for inhibition dose response curves. Diluted compounds are then mixed with an equal volume of CXCL10 (Peprotech) diluted in PBS. Anticoagulated venous human whole blood is added to the mixture, which is then incubated in a CO2 incubator at 37° C. to allow for ligand mediated receptor internalization (final CXCL10 concentration is 9 nM). After 30′, the blood is mixed with fluorescently labeled CXCR3 and CD3 specific antibodies (Becton Dickinson) and incubated on ice for 10 minutes. Samples are then mixed with BD FACS Lysing Solution (Becton Dickinson) in order to eliminate red blood cells. After washing the cells with PBS containing 0.5% BSA, the samples are then analyzed in a flow cytometer (FACS Canto II, Becton Dickinson). For data analysis using FACSDiva software (Becton Dickinson), the mean fluorescence corresponding to CXCR3 cell surface expression was determined on CD3 positive cells. The program GraphPad Prism is used to fit the data to a single site dose response curve and to calculate IC50 values.

Chain of human CXCR3A (P49682 whole entry): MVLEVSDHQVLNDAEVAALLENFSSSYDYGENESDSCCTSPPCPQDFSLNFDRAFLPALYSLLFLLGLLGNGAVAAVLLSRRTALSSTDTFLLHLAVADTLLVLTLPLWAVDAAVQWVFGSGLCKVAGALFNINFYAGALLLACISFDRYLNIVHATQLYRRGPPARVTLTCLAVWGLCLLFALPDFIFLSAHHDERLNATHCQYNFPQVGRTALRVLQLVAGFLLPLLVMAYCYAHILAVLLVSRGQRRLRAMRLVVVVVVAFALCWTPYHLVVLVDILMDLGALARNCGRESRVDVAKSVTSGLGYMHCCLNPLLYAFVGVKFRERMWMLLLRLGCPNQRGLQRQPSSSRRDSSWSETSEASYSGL
Chain of CXCR3 (P49682 whole entry): as above

IC50 (human CXCR3A) [nM] | IC50 (CXCR3) [nM] | SMILES
2 | 2930 | C[C@@H]1CN(c2scnc2-c2nc3ccccc3[nH]2)CCN1C(=O)CN1CCc2cccnc21 [Example 139, 1-{(R)-4-[4-(1H-Benzoimidazol-2-yl)-thiazol-5-yl]-2-methyl-piperazin-1-yl}-2-(2,3-dihydro-pyrrolo[2,3-b]pyridin-1-yl)-ethanone]
1 | 221 | CCc1ccc2nc(-c3ncsc3N3CCN(C(=O)Cn4cnc5cccnc54)[C@H](C)C3)[nH]c2c1 [Example 99, 1-{(R)-4-[4-(6-Ethyl-1H-benzoimidazol-2-yl)-thiazol-5-yl]-2-methyl-piperazin-1-yl}-2-imidazo[4,5-b]pyridin-3-yl-ethanone]
2 | 6900 | COC(=O)c1ccn(CC(=O)N2CCN(c3sc(C(F)(F)F)nc3-c3nc4ccccc4[nH]3)C[C@H]2C)n1 [Example 198, 1-(2-{(R)-4-[4-(1H-Benzoimidazol-2-yl)-2-trifluoromethyl-thiazol-5-yl]-2-methyl-piperazin-1-yl}-2-oxo-ethyl)-1H-pyrazole-3-carboxylic acid methyl ester]
2 | 633 | Cn1c(=O)n(CC(=O)N2CCN(c3scnc3-c3nc4cc(C(F)(F)F)ccc4[nH]3)CC2)c2ccccc21 [Example 32, 1-Methyl-3-(2-oxo-2-{4-[4-(5-trifluoromethyl-1H-benzoimidazol-2-yl)-thiazol-5-yl]-piperazin-1-yl}-ethyl)-1,3-dihydro-benzoimidazol-2-one]
6 | 4180 | C[C@@H]1CN(c2sc(C(F)(F)F)nc2-c2nc3ccccc3[nH]2)CCN1C(=O)Cn1nccc1-c1ccccc1 [Example 204, 1-{(R)-4-[4-(1H-Benzoimidazol-2-yl)-2-trifluoromethyl-thiazol-5-yl]-2-methyl-piperazin-1-yl}-2-(5-phenyl-pyrazol-1-yl)-ethanone]
25 | 875 | COC[C@H]1CN(c2scnc2-c2nc3ccccc3[nH]2)CCN1C(=O)Cn1ccc2cccnc21 [Example 19, 1-{(R)-4-[4-(1H-Benzoimidazol-2-yl)-thiazol-5-yl]-2-methoxymethyl-piperazin-1-yl}-2-pyrrolo[2,3-b]pyridin-1-yl-ethanone]
1 | 310 | C[C@@H]1CN(c2sc(C(F)(F)F)nc2-c2nc3ccccc3[nH]2)CCN1C(=O)Cc1ccccc1N1CCN(C)CC1 [Example 208, 1-{(R)-4-[4-(1H-Benzoimidazol-2-yl)-2-trifluoromethyl-thiazol-5-yl]-2-methyl-piperazin-1-yl}-2-[2-(4-methyl-piperazin-1-yl)-phenyl]-ethanone]
28 | 627 | C[C@@H]1CN(c2sc(C(F)(F)F)nc2-c2nc3ccccc3[nH]2)CCN1C(=O)Cc1ccccc1-n1nccn1 [Example 200, 1-{(R)-4-[4-(1H-Benzoimidazol-2-yl)-2-trifluoromethyl-thiazol-5-yl]-2-methyl-piperazin-1-yl}-2-(2-[1,2,3]triazol-2-yl-phenyl)-ethanone]
0.1 | 324 | Cc1nc(C)n(CC(=O)N2CCN(c3sc(C(F)(F)F)nc3-c3nc4cc(CCN)ccc4[nH]3)C[C@H]2C)n1 [Example 239, 1-((R)-4-{4-[5-(2-Amino-ethyl)-1H-benzoimidazol-2-yl]-2-trifluoromethyl-thiazol-5-yl}-2-methyl-piperazin-1-yl)-2-(3,5-dimethyl-[1,2,4]triazol-1-yl)-ethanone]
9 | 1510 | C[C@@H]1CN(c2sc(C3COC3)nc2-c2nc3ccccc3[nH]2)CCN1C(=O)Cn1cnc2cccnc21 [Example 113, 1-{(R)-4-[4-(1H-Benzoimidazol-2-yl)-2-oxetan-3-yl-thiazol-5-yl]-2-methyl-piperazin-1-yl}-2-imidazo[4,5-b]pyridin-3-yl-ethanone]
1 | 459 | C[C@@H]1CN(c2sc(Br)nc2-c2nc3ccccc3[nH]2)CCN1C(=O)Cn1cnc2cccnc21 [Example 80, 1-{(R)-4-[4-(1H-Benzoimidazol-2-yl)-2-bromo-thiazol-5-yl]-2-methyl-piperazin-1-yl}-2-imidazo[4,5-b]pyridin-3-yl-ethanone]
4 | 737 | Cc1ncnn1CC(=O)N1CCN(c2sc(C(F)(F)F)nc2-c2nc3ccccc3[nH]2)C[C@H]1C [Example 212, 1-{(R)-4-[4-(1H-Benzoimidazol-2-yl)-2-trifluoromethyl-thiazol-5-yl]-2-methyl-piperazin-1-yl}-2-(5-methyl-[1,2,4]triazol-1-yl)-ethanone]
1 | 98 | CC(=O)c1ccc2[nH]c(-c3nc(C(F)(F)F)sc3N3CCN(C(=O)Cn4cnc5cccnc54)[C@H](C)C3)nc2c1 [Example 165, 1-{(R)-4-[4-(5-Acetyl-1H-benzoimidazol-2-yl)-2-trifluoromethyl-thiazol-5-yl]-2-methyl-piperazin-1-yl}-2-imidazo[4,5-b]pyridin-3-yl-ethanone]
2 | 2860 | C[C@@H]1CN(c2sc(C(F)(F)F)nc2-c2nc3ccccc3[nH]2)CCN1C(=O)Cc1cccc(-n2nccn2)c1 [Example 201, 1-{(R)-4-[4-(1H-Benzoimidazol-2-yl)-2-trifluoromethyl-thiazol-5-yl]-2-methyl-piperazin-1-yl}-2-(3-[1,2,3]triazol-2-yl-phenyl)-ethanone]
1 | 332 | C[C@@H]1CN(c2sc(C(F)(F)F)nc2-c2nc3ccccc3[nH]2)CCN1C(=O)Cn1cnc(Br)n1 [Example 207, 1-{(R)-4-[4-(1H-Benzoimidazol-2-yl)-2-trifluoromethyl-thiazol-5-yl]-2-methyl-piperazin-1-yl}-2-(3-bromo-[1,2,4]triazol-1-yl)-ethanone]
6 | 447 | C[C@@H]1CN(c2scnc2-c2nc3ccccc3[nH]2)CCN1C(=O)Cn1cnc2cccnc21 [Example 17, 1-{(R)-4-[4-(1H-Benzoimidazol-2-yl)-thiazol-5-yl]-2-methyl-piperazin-1-yl}-2-imidazo[4,5-b]pyridin-3-yl-ethanone]
2 | 2450 | C[C@@H]1CN(c2scnc2-c2nc3ccccc3[nH]2)CCN1C(=O)Cc1cccc2cccnc12 [Example 119, 1-{(R)-4-[4-(1H-Benzoimidazol-2-yl)-thiazol-5-yl]-2-methyl-piperazin-1-yl}-2-quinolin-8-yl-ethanone]
2 | 458 | N#Cc1cccc2ccn(CC(=O)N3CCN(c4scnc4-c4nc5ccccc5[nH]4)CC3)c12 [Example 61, 1-(2-{4-[4-(1H-Benzoimidazol-2-yl)-thiazol-5-yl]-piperazin-1-yl}-2-oxo-ethyl)-1H-indole-7-carbonitrile]
1 | 98 | CN(C)C[C@@H]1CN(c2scnc2-c2nc3ccccc3[nH]2)CCN1C(=O)Cn1cnc2cccnc21 [Example 229, 1-{(R)-4-[4-(1H-Benzoimidazol-2-yl)-thiazol-5-yl]-2-dimethylaminomethyl-piperazin-1-yl}-2-imidazo[4,5-b]pyridin-3-yl-ethanone]
2 | 540 | Cc1ccc2[nH]c(-c3ncsc3N3CCN(C(=O)Cn4c(=O)n(C)c5ccccc54)CC3)nc2c1 [Example 31, 1-Methyl-3-(2-{4-[4-(5-methyl-1H-benzoimidazol-2-yl)-thiazol-5-yl]-piperazin-1-yl}-2-oxo-ethyl)-1,3-dihydro-benzoimidazol-2-one]

SMILES | IC50 (human CXCR3A) [nM] | IC50 (CXCR3) [nM]
Cc1nc(C)n(CC(=O)N2CCN(c3sc(C(F)(F)F)nc3-c3nc4ccc(-c5noc(C)n5)cc4[nH]3)C[C@H]2C)n1 [Example 236, 2-(3,5-Dimethyl-[1,2,4]triazol-1-yl)-1-((R)-2-methyl-4-{4-[6-(5-methyl-[1,2,4]oxadiazol-3-yl)-1H-benzoimidazol-2-yl]-2-trifluoromethyl-thiazol-5-yl}-piperazin-1-yl)-ethanone] | 3 | 265
Cc1nn(CC(=O)N2CCN(c3sc(C(F)(F)F)nc3-c3nc4ccccc4[nH]3)C[C@H]2C)cc1CN(C)C [Example 211, 1-{(R)-4-[4-(1H-Benzoimidazol-2-yl)-2-trifluoromethyl-thiazol-5-yl]-2-methyl-piperazin-1-yl}-2-(4-dimethylaminomethyl-3-methyl-pyrazol-1-yl)-ethanone] | 1 | 227
C[C@@H]1CN(c2sc(C(F)(F)F)nc2-c2nc3ccccc3[nH]2)CCN1C(=O)Cn1cccn1 [Example 173, 1-{(R)-4-[4-(1H-Benzoimidazol-2-yl)-2-trifluoromethyl-thiazol-5-yl]-2-methyl-piperazin-1-yl}-2-pyrazol-1-yl-ethanone] | 0.5 | 395
C[C@@H]1CN(c2sc(C(F)(F)F)nc2-c2nc3ccccc3[nH]2)CCN1C(=O)Cn1cnc2c1CCN(C)C2 [Example 209, 1-{(R)-4-[4-(1H-Benzoimidazol-2-yl)-2-trifluoromethyl-thiazol-5-yl]-2-methyl-piperazin-1-yl}-2-(5-methyl-4,5,6,7-tetrahydro-imidazo[4,5-c]pyridin-1-yl)-ethanone] | 3 | 101
